These results are taken from patent US8097725B2, “Luminescent indicator dye and optical sensor” (Roche Diagnostics Operations, Inc., priority 2004, dated 2012).

For data set [1] the following is noted: immobilized in a hydrogel matrix; FIG. 3 in Werner et al.; cited from earlier work.
Data set [2] in a line: pH titration of luminescence intensity of the optical sensor disc. In kind it is physicochemical. How it is done:
The indicator layer casting solution was coated onto a polyester foil (Melinex foil, ICI America) and the solvent was evaporated. The final dry thickness of the indicator layer was approximately 10 μm. Then, the overcoat layer casting solution was coated onto the indicator layer and the solvent was evaporated. The final a dry thickness of the overcoat layer was about 5 μm. Then, a small sensor disc (2.5 cm diameter) was punched out and soaked in buffer for at least 17 h for activation.
Aliquots of solutions A and B were mixed in appropriate rations to obtain eleven pH buffer solutions of pH 2.67, 3.66, 5.41, 6.35, 6.74, 7.28, 7.76, 8.29, 8.78, 9.81, 10.79, respectively. The pHs were determined at 37° C. with a standard glass electrode.
The sensor discs thus obtained were used in the measuring set-up represented schematically in FIG. 2. In FIG. 2, the reference character S denotes a portion of the sensor disc. […]
[formula] L denotes luminescence intensity and Lm denotes maximum luminescence intensity. […] (ON intensity=luminescence intensity of the protonated species (i.e., in FIG. 3 the intensity at pHs<5), OFF intensity=intensity of the deprotonated species (i.e., in FIG. 3 the intensity at pHs>10).

Molecules are shown by their SMILES.

As to `CC1=CC(C)=[N+]2C1=C(c1ccc(N(C)C)cc1)c1c(C)cc(C)n1[B-]2(F)F` [1,3,5,7-tertramethyl-8-(4-dimethylamino)-4-difluorobora-3a,4a-diaza(s)-indacene], in data set [1], the pK is listed as 3.3. As to `O=C(O)c1ccc(CN2C(=O)c3cccc4c(NCCc5cc(Cl)c(O)c(Cl)c5)ccc(c34)C2=O)cc1` [Dye A41], the “OFF intensity as percentage of ON intensity” value in data set [2] (ON = protonated species (pH<5), OFF = deprotonated species (pH>10)) came out at 5%. In data set [2] (immobilized on PVP beads dispersed in hydrophilic polymer layer, 37° C., buffers pH 2.67-10.79, least squares fit of intensity vs pH, excitation 480 nm, emission 520 nm cut-off), this compound returned a pK value of 7.25.
